Measured values as given in US20220235073A1, “ARTEMISININ-DERIVATIVE N-HETEROCYCLIC CARBENE GOLD(I) HYBRID COMPLEXES” (CENTRE NATIONAL DE LA RECHERCHE SCIENTIFIQUE, priority 2019, published 2022).

Legend:
Nrf2 = experiment: NRF2 transcriptional activity, ARE Reporter Hep G2 cell line; assay type: cell-based, human; conditions: ARE Reporter Hep G2 cells, 16 hours, any dose
Method: The ARE Reporter Hep G2 cell line containing a firefly luciferase gene under the control of ARE stably integrated into Hep G2 cells was used to quantify NRF2 transcriptional activity after 16 hours of treatment with the indicated doses of the different complexes. The results are shown as fold induction of ARE luciferase reporter expression. Dashed line indicates a fold induction of 1 (values >1 mean activation and values <1 mean inhibition).
ARE-reporter-HepG-2 cells were harvested from culture in Growth Medium 1K and they were seeded at a concentration of 40,000 cells/well into white clear-bottom 96-well microplate in 45 μL of Growth Medium 1K without Geneticin. Cells were allowed to attach overnight and then treated with different concentrations of complex 2a (from 0.01 μM to 20 μM), auranofin (from 0.01 μM to 20 μM) or DHA (from 0.01 μM to 3, 5, 10, 20 and 50 μM), and complex (from 0.01 μM to 20 μM). After incubation at 37° C. and 5% CO2 for 16 hours, ONE-Step luciferase assay reagent (100 μL) was added and rock at room temperature for over 15 minutes. Then the luminescence of each well was determined by CLARIOstar microplate reader to quantify induction of ARE. Three independent experiments were performed as biological triplicates. The results are in FIG. 4.

[1] = tested on: RWPE-1 human prostate normal cells; experiment: Cell viability MTT assay, RWPE-1; assay type: cell-based; conditions: for GI50: 72 h, MTT assay; for Selectivity index RWPE-1: SI = GI50 (RWPE-1)/GI50 (PC-3)
Method: (§1) HepG-2 human liver cancer cells were cultured in EMEM containing 10% of FBS, 1% of nonessential amino acids, 1 mM of Na-pyruvate, 1% of PenStrep antibiotics and 600 μg/mL of Geneticin. A549 human lung carcinoma cells, T24 human bladder carcinoma cells, MCF-7 human breast adenocarcinoma cells, U-2OS human osteosarcoma and NIH3T3 murine fibroblast cells were cultured in DMEM medium containing 10% fetal bovine serum and 1% antibiotics at 37° C. in 5% CO2 humidified incubators. MC3T3 mouse osteoblast cells were cultured in MEM medium containing 10% fetal bovine serum and 1% antibiotics at 37° C. in 5% CO2 humidified incubators. RWPE-1 human prostate normal cells were cultured in K-SFM medium containing 0.05 mg/ml bovine pituitary extract (BPE) and 5 ng/ml epidermal growth factor (EGF) at 37° C. in 5% CO2 humidified incubators. The MTT reagent (3-(4,5-dimethylthiazol-2-yl)-2,5-diphenyltetrazolium bromide) was used to determine cell death as originally described by Mosmaneland modified by Cuvillier et al.^[6] Briefly, cells were seeded 5,000 to 10,000 cells/well in 24-well plates depending on the cell type and allowed to attach overnight. All of the complexes were dissolved in DMSO. The concentration of the complexes was calculated according to the elemental composition of the complexes determined by the elemental analyses. Media in the presence of the tested complexes were added and serially diluted to various concentrations (from 5 μM to 0.01 μM). Next to these concentrations, for DHA 50, 20 and 10 μM and for the cationic bisNHC gold(I) complex 3 0.001 μM have been used. […] After 72 h of treatment, cells were incubated at 37° C. and 5% CO2 with 25 μL MTT solution (5 mg/mL; Sigma-Aldrich) in 24-well plates for approximately 3 to 4 h. After solubilization with 500 μL of lysis buffer (DMSO), formazan was quantified by spectrophotometry with a microplate reader at 570 nm absorbance. […] All the results were calculated from data obtained in three independent experiments.

[2] = tested on: NIH3T3 murine fibroblast cells; experiment: Cell viability MTT assay, NIH3T3; assay type: cell-based; conditions: for GI50: 72 h, MTT assay; for Selectivity index NIH3T3: SI = GI50 (non-cancer cell line NIH3T3)/GI50 (cancer cell line PC-3)
Method: as §1

[3] = tested on: PC-3 human prostate cancer cells; experiment: Cell viability MTT assay, PC-3; assay type: cell-based; conditions: for GI50: 72 h, MTT assay
Tumor cell models = experiment: MTT assay, panel of tumor cell models; assay type: cell-based, human; conditions: mean of PC-3, A549, U2OS, T24, MCF-7, LAMA, HL60
Method: (§2) PC-3 human prostate cancer cells, and LAMA chronic myeloid leukemia were cultured in RPMI 1640 containing 10% fetal bovine serum and 1% antibiotics (100 U/mL penicillin and 100 μg/mL streotimycin) at 37° C. in 5% CO2 humidified incubators. HL60 […] were cultured in RPMI 1640 containing 15% fetal bovine serum and 1% antibiotics (100 U/mL penicillin and 100 μg/mL streotimycin) at 37° C. in 5% CO2 humidified incubators. HepG-2 human liver cancer cells were cultured in EMEM containing 10% of FBS, 1% of nonessential amino acids, 1 mM of Na-pyruvate, 1% of PenStrep antibiotics and 600 μg/mL of Geneticin. A549 human lung carcinoma cells, T24 human bladder carcinoma cells, MCF-7 human breast adenocarcinoma cells, U-2OS human osteosarcoma and NIH3T3 murine fibroblast cells were cultured in DMEM medium containing 10% fetal bovine serum and 1% antibiotics at 37° C. in 5% CO2 humidified incubators. MC3T3 mouse osteoblast cells were cultured in MEM medium containing 10% fetal bovine serum and 1% antibiotics at 37° C. in 5% CO2 humidified incubators. RWPE-1 human prostate normal cells were cultured in K-SFM medium containing 0.05 mg/ml bovine pituitary extract (BPE) and 5 ng/ml epidermal growth factor (EGF) at 37° C. in 5% CO2 humidified incubators. The MTT reagent (3-(4,5-dimethylthiazol-2-yl)-2,5-diphenyltetrazolium bromide) was used to determine cell death as originally described by Mosmaneland modified by Cuvillier et al.^[6] Briefly, cells were seeded 5,000 to 10,000 cells/well in 24-well plates depending on the cell type and allowed to attach overnight. All of the complexes were dissolved in DMSO. The concentration of the complexes was calculated according to the elemental composition of the complexes determined by the elemental analyses. […] After solubilization with 500 μL of lysis buffer (DMSO), formazan was quantified by spectrophotometry with a microplate reader at 570 nm absorbance. […] All the results were calculated from data obtained in three independent experiments.

[4] = tested on: A549 human lung carcinoma cells; experiment: Cell viability MTT assay, A549; assay type: cell-based
Method: (§3) PC-3 human prostate cancer cells, and LAMA chronic myeloid leukemia were cultured in RPMI 1640 containing 10% fetal bovine serum and 1% antibiotics (100 U/mL penicillin and 100 μg/mL streotimycin) at 37° C. in 5% CO2 humidified incubators. HL60 […] were cultured in RPMI 1640 containing 15% fetal bovine serum and 1% antibiotics (100 U/mL penicillin and 100 μg/mL streotimycin) at 37° C. in 5% CO2 humidified incubators. HepG-2 human liver cancer cells were cultured in EMEM containing 10% of FBS, 1% of nonessential amino acids, 1 mM of Na-pyruvate, 1% of PenStrep antibiotics and 600 μg/mL of Geneticin. A549 human lung carcinoma cells, T24 human bladder carcinoma cells, MCF-7 human breast adenocarcinoma cells, U-2OS human osteosarcoma and NIH3T3 murine fibroblast cells were cultured in DMEM medium containing 10% fetal bovine serum and 1% antibiotics at 37° C. in 5% CO2 humidified incubators. MC3T3 mouse osteoblast cells were cultured in MEM medium containing 10% fetal bovine serum and 1% antibiotics at 37° C. in 5% CO2 humidified incubators. RWPE-1 human prostate normal cells were cultured in K-SFM medium containing 0.05 mg/ml bovine pituitary extract (BPE) and 5 ng/ml epidermal growth factor (EGF) at 37° C. in 5% CO2 humidified incubators. The MTT reagent (3-(4,5-dimethylthiazol-2-yl)-2,5-diphenyltetrazolium bromide) was used to determine cell death as originally described by Mosmaneland modified by Cuvillier et al.^[6] Briefly, cells were seeded 5,000 to 10,000 cells/well in 24-well plates depending on the cell type and allowed to attach overnight. All of the complexes were dissolved in DMSO. The concentration of the complexes was calculated according to the elemental composition of the complexes determined by the elemental analyses. Media in the presence of the tested complexes were added and serially diluted to various concentrations (from 5 μM to 0.01 μM). Next to these concentrations, for DHA 50, 20 and 10 μM and for the cationic bisNHC gold(I) complex 3 0.001 μM have been used. […] After 72 h of treatment, cells were incubated at 37° C. and 5% CO2 with 25 μL MTT solution (5 mg/mL; Sigma-Aldrich) in 24-well plates for approximately 3 to 4 h. After solubilization with 500 μL of lysis buffer (DMSO), formazan was quantified by spectrophotometry with a microplate reader at 570 nm absorbance. The GI50 values corresponding to the concentration that caused 50% inhibition of cell proliferation were calculated from dose-response curves obtained by nonlinear regression analysis (Prism 8, Graphpad Software). All the results were calculated from data obtained in three independent experiments.

[5] = tested on: MCF-7 human breast adenocarcinoma cells; experiment: Cell viability MTT assay, MCF-7; assay type: cell-based
Method: as §3

[6] = tested on: HepG-2 human liver cancer cells; experiment: Cell viability MTT assay, HepG-2; assay type: cell-based; conditions: 72 h
Method: as §2

[7] = tested on: NF-κB transcription factor induced by TNFalpha; experiment: NF-kB transcriptional activity, NF-kB Reporter (Luc)-A549 stable cell line; assay type: cell-based, human; conditions: NF-kB Reporter A549 cells, 1 ng/ml TNFα, 7 hours; read-out: IC50, inhibition of NF-κB transcription factor induced by TNFalpha
Method: The NF-kB Reporter (Luc)—A549 Stable Cell Line was used to quantify the inhibitory effects of the indicated doses of the molecules of the invention on transcriptional activity of NF-kB activated by 1 ng/ml TNFα (7 hours of treatment).
Luminescence was read using a luminometer and readings were normalized to wells that only contain media to obtain the Relative Luminescence Units (RLUs).
9. NF-kB Transcriptional Activity

[8] = tested on: LAMA chronic myeloid leukemia; experiment: Cell viability MTT assay, LAMA; assay type: cell-based, human
Method: as §3

[9] = tested on: T24 human bladder carcinoma cells; experiment: Cell viability MTT assay, T24; assay type: cell-based
Method: as §3

[10] = tested on: HL60 (acute myeloid leukemia); experiment: Cell viability MTT assay, HL60; assay type: cell-based
Method: as §3

[11] = tested on: Non tumoral cell models (MC3-T3, NIH3T3, RWPE1); experiment: MTT assay, mean over non tumoral cell models; assay type: cell-based; conditions: mean of MC3-T3, NIH3T3, RWPE1
Method: as §2

[12] = tested on: MC3T3 mouse osteoblast cells; experiment: Cell viability MTT assay, MC3T3; assay type: cell-based
Method: as §3

U-2OS human osteosarcoma = experiment: Cell viability MTT assay, U-2OS; assay type: cell-based
Method: as §3

[13] = ratio of IC50, tumoral versus non tumoral cells of same tissue

## C[C@@H]1CC[C@H]2[C@@H](C)C(=O)O[C@@H]3O[C@@]4(C)CC[C@@H]1[C@]32OO4 [artemisinin]
Nrf2
  Effect on activity of Nrf2: activate

## CN1C=CN(c2ccc3ccccc3n2)[CH]1[Au-][CH]1N(C)C=CN1c1ccc2ccccc2n1 (centres unmarked) [Compound 3]
Nrf2
  Effect on activity of Nrf2: activate

## 3′-methyl-1′-[10β-(21-butoxy)dihydroartemisin]1H-imidazol-3-ium bromide [Compound 1b]
[1]
  GI50: > 20000 nM
[2]
  GI50: > 20000 nM
[3]
  GI50: > 20000 nM

## C[C@@H]1CCC2[C@@H](C)[C@@H](OCCCCn3cc[n+](C)[c]3[Au-][c]3n(CCCCO[C@H]4O[C@@H]5O[C@]6(C)CCC7[C@H](C)CCC([C@H]4C)[C@]75OO6)cc[n+]3C)O[C@@H]3O[C@]4(C)CCC1[C@@]23OO4.[Cl-] (some centres unmarked) [Compound 2b]
[1]
  GI50: 110 nM
  Selectivity index RWPE-1: 2.6
[2]
  GI50: 700 nM
  Selectivity index NIH3T3: 16.7
[3]
  GI50: 42 nM

## C[C@@H]1CCC2[C@@H](C)[C@@H](OCCCn3cc[n+](C)[c]3[Au-][c]3n(CCCO[C@H]4O[C@@H]5O[C@]6(C)CCC7[C@H](C)CCC([C@H]4C)[C@]75OO6)cc[n+]3C)O[C@@H]3O[C@]4(C)CCC1[C@@]23OO4.O=[N+]([O-])[O-] (some centres unmarked) [Compound 2a]
[1]
  GI50: 480 nM
  Selectivity index RWPE-1: 6.9
[1]; Table 3, non tumoral cell model, read-out: IC50 RWPE1 (prostatic epithelial cells)
  IC50: 480 nM
[1]; [13]
  Specificity Prostate: RWPE1 (normal immortalized)/PC-3 (tumoral): 6.9
[1]; ratio of SI
  SI PC-3/RPWE-1 value, times higher than Auranofin: 69 times
  SI PC-3/RPWE-1 value, times higher than complex 3: 35 times
[2]
  GI50: 1130 nM
  Selectivity index NIH3T3: 16.1
[2]; Table 3, non tumoral cell model, read-out: IC50 NIH3T3 (fibroblasts)
  IC50: 1130 nM
Tumor cell models
  IC50: 96 nM
[4]; 72 h, MTT assay
  GI50: 110 nM
[4]; Table 3, tumor cell model
  IC50: 115 nM
[5]; 72 h, MTT assay
  GI50: 90 nM
[5]; Table 3, tumor cell model
  IC50: 89 nM
[6]
  GI50: 2430 nM
[7]
  IC50: ~615 nM
[3]
  GI50: 70 nM
[3]; Table 3, tumor cell model
  IC50: 70 nM
[8]; 72 h, MTT assay
  GI50: 80 nM
[8]; Table 3, tumor cell model
  IC50: 79 nM
[9]; 72 h, MTT assay
  GI50: 170 nM
[9]; Table 3, tumor cell model
  IC50: 175 nM
[10]; 72 h, MTT assay
  GI50: 22 nM
[10]; Table 3, tumor cell model
  IC50: 22 nM
[11]
  IC50: 1080 nM
[12]; 72 h, MTT assay
  GI50: 1620 nM
[12]; SI = GI50 (MC3T3)/GI50 (PC-3)
  Selectivity index MC3T3: 23.1
[12]; Table 3, non tumoral cell model, read-out: IC50 MC3-T3 (osteoblasts)
  IC50: 1620 nM
[12]; [13]
  Specificity Bone: MC3-T3 (normal immortalized)/U2OS (tumoral): 13.3
U-2OS human osteosarcoma; 72 h, MTT assay, read-out: GI50 U2OS
  GI50: 120 nM
U-2OS human osteosarcoma; Table 3, tumor cell model, read-out: IC50 U2OS (bone tumor)
  IC50: 122 nM

## 3′-methyl-1′-[10β-(20-propoxy)dihydroartemisin]1H-imidazol-3-ium bromide [Compound 1a]
[1]
  GI50: > 20000 nM
[2]
  GI50: > 20000 nM
[3]
  GI50: > 20000 nM

## 3′-methyl-1′-[10β-(22-pentoxy)dihydroartemisin]1H-imidazol-3-ium bromide [Compound 1c]
[1]
  GI50: 3740 nM
[2]
  GI50: > 20000 nM
[3]
  GI50: > 20000 nM
